Test results: patent US8604029B2, “2-[(2-substituted)-indolizin-3-yl]-2-oxo-acetamide derivatives as antifungal agents” (F2G Ltd British Body Corporate, priority 2006, dated 2013)
Converted amounts (≈) assume the structure as drawn.

Experiments:
Assay type in all cases: cell-based
Aspergillus flavus = test: MIC measurement, YAG medium; settings: Aspergillus flavus, MIC banded into grades, lowest concentration inhibiting growth by >70%
In short: (§1)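 Spores from 5-day Sabouraud agar cultures were diluted in YAG medium (1% glucose, 1% ammonium chloride, 0.5% yeast extract) to a final inoculum of 1-2×10^4 cfu/mL, with drug at 50-0.05 mg/L. Plates were incubated 24 h at 35° C and read as OD 485 nm. MIC is the lowest concentration giving >70% inhibition versus drug-free control, in mg/L.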

[1] = system: Aspergillus fumigatus AF210; test: MIC measurement, YAG medium; settings: Aspergillus fumigatus, MIC banded into grades, strain AF210, read-out: MIC A. fumigatus 210
In short: as §1

Aspergillus fumigatus = test: MIC measurement, YAG medium; settings: Aspergillus fumigatus; YAG medium; MIC banded into grades; strain AF293; read-out: MIC A. fumigatus
In short: as §1

Aspergillus niger = test: MIC measurement, YAG medium; settings: Aspergillus niger, MIC banded into grades
In short: as §1

Aspergillus terreus AT49 = test: MIC measurement, YAG medium; settings: Aspergillus terreus, MIC banded into grades, strain AT49, read-out: MIC A. terreus 49
In short: as §1

Aspergillus terreus = test: MIC measurement, YAG medium; settings: Aspergillus terreus, MIC banded into grades, strain not named in head (AT4)
In short: as §1

Fusarium solani = test: 24 hr MIC measurement, RPMI medium; settings: Fusarium solani FS2, MIC banded into grades
Method: Between 1 and 5 mgs of compound were accurately weighed out into a sterile Eppendorf tube. The compound was dissolved in DMSO to give a solution containing […]. Tubes were stored at −20° C. until required.
On the day of testing thawed solutions were vortex mixed to ensure homogeneity. 30 μL of solution was removed and added to 570 μL of sterile water in a separate sterile Eppendorf. The thoroughly mixed solution was used to prepare a series of doubling dilutions in water, in a deep well plate. Thirteen replicate plates were prepared using a Minitrak by aspirating 20 μL from each well into eleven clear polystyrene 96 well plates.
Spores of Aspergillus spp. […]
This produced MIC plates with a drug range 50-0.05 mg/L and organism inocula of 1-2×10^4 cfu/mL for Aspergillus spp. and other filamentous fungi and 1-2×10^3 cfu/mL for yeasts. […] Growth was assessed by monitoring the optical density at 485 nm for each well. […] MICs are recorded as mg/L. Other growth media can be used for susceptibility testing, and the activity of the described compounds can also be assessed in a medium comprising 1% glucose, 1% ammonium chloride and 0.5% yeast extract (YAG medium). […] Growth was assessed by monitoring the optical density at 485 nm for each well. […]

Row | MIC (Aspergillus flavus) [µg/mL] | MIC [1] [µg/mL] | MIC (Aspergillus fumigatus) [µg/mL] | MIC (Aspergillus niger) [µg/mL] | MIC (Aspergillus terreus AT49) [µg/mL] | MIC (Aspergillus terreus) [µg/mL] | MIC (Fusarium solani) [µg/mL] | SMILES
1 | < 1 | < 1 | < 1 | < 1 | < 1 | < 1 | < 1 | C=C1CCN(c2ccc(NC(=O)C(=O)c3c(-c4ccccc4)cc4ccccn34)cc2)CC1 [Example 3, N-[4-(4-methylene-piperidin-1-yl)-phenyl]-2-oxo-2-(2-phenyl-indolizin-3yl) acetamide]
2 | < 1 | < 1 | < 1 | < 1 | < 1 | < 1 | 1 to 10 (≈ 1.86 to 18.6 µM) | C[C@@H]1CN(C2CCN(c3ccc(NC(=O)C(=O)c4c(-c5ccccc5)cc5ccccn45)cc3)CC2)C[C@H](C)O1 [Example 24, N-{4-[4-(2,6-Dimethyl-morpholin-4-yl)-piperidin-1-yl]-phenyl}-2-oxo-2-(2-phenyl-indolizin-3-yl)-acetamide]
